The source made the active and inactive calls. No cut-off for these calls is given here.
How the values were obtained:
NCI-H3122 [1] = assay: Cell cycle arrest in human NCI-H3122 cells assessed as accumulation of cells at S phase at 0.625 uM incubated for 24 hrs by propidium iodide staining based flow cytometric analysis (reference value: 29.94%); format: functional
[2] = Toxicity in BALB/c nude mouse xenografted with human NCI-H3122 cells assessed as effect on liver function at 75 mg/kg, IG administered once daily for 18 days by H and E staining based assay; format: organism-based; conditions: in vivo, po, 432 h, time 18 day
[3] = target: T1, Protein cereblon/Cyclin-dependent kinase 4 (Homo sapiens, UniProt P11802+Q96SW2); assay: PROTAC activity at CRBN/CDK4 in human NCI-H3122 cells assessed as induction of CDK4 degradation at 5 uM pretreated with pomalidomide for 4 hrs followed compound addition and measured after 24 hrs by Western blot analysis; format: cell-based
NCI-H3122 [4] = assay: Induction of apoptosis in human NCI-H3122 cells assessed as necrotic cells at 0.625 uM incubated for 48 hrs by Annexin V-FITC/propidium iodide staining based flow cytometric analysis (reference value: 0.57%); format: functional
[5] = target: T1, Protein cereblon/Cyclin-dependent kinase 4; assay: PROTAC activity at CRBN/CDK4 in human NCI-H3122 cells assessed as downregulation of phosphorylated Rb level by Western blot analysis; format: cell-based
NCI-H3122 [6] = assay: Induction of apoptosis in human NCI-H3122 cells assessed as late apoptotic cells at 0.312 uM incubated for 48 hrs by Annexin V-FITC/propidium iodide staining based flow cytometric analysis (reference value: 3.06%); format: functional
[7] = Toxicity in BALB/c nude mouse xenografted with human NCI-H3122 cells assessed as effect on visceral kidney morphology at 75 mg/kg, IG administered once daily for 18 days and measured after 12 hrs of last dose by H and E staining based analysis; format: organism-based; conditions: in vivo, po, 444 h
[8] = Toxicity in BALB/c nude mouse xenografted with human NCI-H3122 cells assessed as effect on visceral spleen morphology at 75 mg/kg, IG administered once daily for 18 days and measured after 12 hrs of last dose by H and E staining based analysis; format: organism-based; conditions: in vivo, po, 444 h
[9] = target: T1, Protein cereblon/Cyclin-dependent kinase 4; assay: PROTAC activity at CRBN/CDK4 in human NCI-H3122 cells assessed as induction of CDK4 degradation at 5 uM pretreated with MG132 for 4 hrs followed compound addition and measured after 24 hrs by Western blot analysis; format: cell-based
NCI-H3122 [10] = assay: Cell cycle arrest in human NCI-H3122 cells assessed as accumulation of cells at G0/G1 phase at 1.25 uM incubated for 24 hrs by propidium iodide staining based flow cytometric analysis (reference value: 48.68%); format: functional
NCI-H3122 [11] = assay: Cell cycle arrest in human NCI-H3122 cells assessed as accumulation of cells at G0/G1 phase at 0.625 uM incubated for 24 hrs by propidium iodide staining based flow cytometric analysis (reference value: 48.68%); format: functional
Mus musculus [12] = assay: In vivo PROTAC activity at CRBN/EML4-ALK in BALB/c nude mouse xenografted with human NCI-H3122 cells assessed as reduction in EML4-ALK protein expression in tumor at 75 mg/kg, IG administered once daily for 18 days and measured after 12 hrs of last dose by immunohistochemical analysis; format: functional, organism-based; conditions: time 444.0 hrs
NCI-H3122 [13] = assay: Cell cycle arrest in human NCI-H3122 cells assessed as G2/M phase cells at 1.25 uM incubated for 24 hrs by propidium iodide staining based flow cytometric analysis (reference value: 20.89%); format: functional
NCI-H3122 [14] = assay: Antitumor activity against human NCI-H3122 cells xenografted in BALB/c nude mouse assessed as reduction in tumor weight at 75 mg/kg, IG administered once daily for 18 days and measured after 12 hrs of last dose; format: functional, organism-based; conditions: time 444.0 hrs
[15] = target: Cyclin-dependent kinase 6 (Homo sapiens) (UniProt Q00534); assay: Inhibition of CDK6 (unknown origin) at 1 uM by LANCE Ultra TR-FRET assay relative to control
NCI-H3122 [16] = assay: Induction of apoptosis in human NCI-H3122 cells assessed as early apoptotic cells at 1.25 uM incubated for 48 hrs by Annexin V-FITC/propidium iodide staining based flow cytometric analysis (reference value: 0.71%); format: functional
NCI-H3122 [17] = assay: Induction of apoptosis in human NCI-H3122 cells assessed as late apoptotic cells at 2.5 uM incubated for 48 hrs by Annexin V-FITC/propidium iodide staining based flow cytometric analysis (reference value: 3.06%); format: functional
[18] = target: T1, Protein cereblon/Cyclin-dependent kinase 4; assay: PROTAC activity at CRBN/CDK4 in human NCI-H3122 cells assessed as increase in CDK4 protein level at 5 uM measured after 24 hrs by Western blot analysis; format: cell-based
NCI-H3122 [19] = assay: Cell cycle arrest in human NCI-H3122 cells assessed as accumulation of cells at G0/G1 phase at 0.312 uM incubated for 24 hrs by propidium iodide staining based flow cytometric analysis (reference value: 48.68%); format: functional
NCI-H3122 [20] = assay: Antiproliferative activity against human NCI-H3122 cells assessed as inhibition of cell growth incubated for 5 days by MTT assay; format: functional, cell-based; conditions: NCI-H3122, 120 h
[21] = target: T2, Protein cereblon/ALK tyrosine kinase receptor/Echinoderm microtubule-associated protein-like 4 (Homo sapiens) (UniProt Q9UM73+Q9HC35+Q96SW2); assay: PROTAC activity at CRBN/EML4-ALK in human NCI-H3122 cells assessed as degradation of EML4-ALK fusion protein at 5 uM pretreated with MG132 for 4 hrs followed compound addition and measured after 24 hrs by Western blot analysis; format: cell-based
NCI-H3122 [22] = assay: Induction of apoptosis in human NCI-H3122 cells assessed as viable cells at 0.312 uM incubated for 48 hrs by Annexin V-FITC/propidium iodide staining based flow cytometric analysis (reference value: 95.66%); format: functional; conditions: read-out: Activity
Mus musculus [23] = assay: In vivo PROTAC activity at CDK4 in BALB/c nude mouse xenografted with human NCI-H3122 cells assessed as reduction in CDK4 protein expression level in tumor at 75 mg/kg, IG administered once daily for 18 days and measured after 12 hrs of last dose by immunohistochemical analysis; format: functional, organism-based; conditions: time 444.0 hrs
[24] = Cytotoxicity against human L02 cells assessed as inhibition of cell growth incubated for 3 to 5 days by MTT assay; format: toxicity, cell-based
[25] = target: T2, Protein cereblon/ALK tyrosine kinase receptor/Echinoderm microtubule-associated protein-like 4 (Homo sapiens); assay: PROTAC activity at CRBN/EML4-ALK in human NCI-H3122 cells assessed as induction of EML4-ALK fusion protein degradation at 5 uM measured at 16 to 48 hrs by Western blot analysis; format: cell-based; conditions: time 16-48 hrs
[26] = Stability of the compound in PBS buffer assessed as cleavage half life in presence of GSH by LC-MS/MS analysis; format: physicochemical; conditions: PBS buffer with GSH
NCI-H3122 [27] = assay: Cell cycle arrest in human NCI-H3122 cells assessed as G2/M phase cells at 0.625 uM incubated for 24 hrs by propidium iodide staining based flow cytometric analysis (reference value: 20.89%); format: functional
NCI-H3122 [28] = assay: Induction of apoptosis in human NCI-H3122 cells assessed as early apoptotic cells at 0.312 uM incubated for 48 hrs by Annexin V-FITC/propidium iodide staining based flow cytometric analysis (reference value: 0.71%); format: functional
NCI-H3122 [29] = assay: Cell cycle arrest in human NCI-H3122 cells assessed as G2/M phase cells at 2.5 uM incubated for 24 hrs by propidium iodide staining based flow cytometric analysis (reference value: 20.89%); format: functional

T1 sequence (P11802 2-303 limits assumed): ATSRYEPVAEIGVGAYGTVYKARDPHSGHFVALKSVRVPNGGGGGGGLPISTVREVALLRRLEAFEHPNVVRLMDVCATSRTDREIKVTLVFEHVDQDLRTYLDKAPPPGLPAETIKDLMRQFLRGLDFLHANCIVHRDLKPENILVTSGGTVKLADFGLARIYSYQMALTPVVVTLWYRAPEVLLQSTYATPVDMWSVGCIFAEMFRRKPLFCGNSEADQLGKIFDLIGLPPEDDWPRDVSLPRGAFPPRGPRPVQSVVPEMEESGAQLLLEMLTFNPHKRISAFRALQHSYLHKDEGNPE
T1 sequence (Q96SW2 whole entry partner): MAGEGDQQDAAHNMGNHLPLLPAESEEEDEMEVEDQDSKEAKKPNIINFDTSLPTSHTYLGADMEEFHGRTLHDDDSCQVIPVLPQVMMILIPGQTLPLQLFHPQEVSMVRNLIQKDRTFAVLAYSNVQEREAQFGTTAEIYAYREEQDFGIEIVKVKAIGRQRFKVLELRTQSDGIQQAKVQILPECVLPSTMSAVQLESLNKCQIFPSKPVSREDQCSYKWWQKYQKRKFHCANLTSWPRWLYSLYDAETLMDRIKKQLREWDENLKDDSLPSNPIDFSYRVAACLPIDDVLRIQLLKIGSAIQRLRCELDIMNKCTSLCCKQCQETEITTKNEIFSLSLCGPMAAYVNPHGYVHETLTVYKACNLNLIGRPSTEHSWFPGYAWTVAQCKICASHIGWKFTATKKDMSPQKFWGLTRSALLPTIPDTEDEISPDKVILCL
T2 sequence (Q96SW2 whole entry partner, the tested form may be a part): as the sequence (Q96SW2 whole entry partner) above
T2 sequence (Q9HC35 whole entry partner, the tested form may be a part): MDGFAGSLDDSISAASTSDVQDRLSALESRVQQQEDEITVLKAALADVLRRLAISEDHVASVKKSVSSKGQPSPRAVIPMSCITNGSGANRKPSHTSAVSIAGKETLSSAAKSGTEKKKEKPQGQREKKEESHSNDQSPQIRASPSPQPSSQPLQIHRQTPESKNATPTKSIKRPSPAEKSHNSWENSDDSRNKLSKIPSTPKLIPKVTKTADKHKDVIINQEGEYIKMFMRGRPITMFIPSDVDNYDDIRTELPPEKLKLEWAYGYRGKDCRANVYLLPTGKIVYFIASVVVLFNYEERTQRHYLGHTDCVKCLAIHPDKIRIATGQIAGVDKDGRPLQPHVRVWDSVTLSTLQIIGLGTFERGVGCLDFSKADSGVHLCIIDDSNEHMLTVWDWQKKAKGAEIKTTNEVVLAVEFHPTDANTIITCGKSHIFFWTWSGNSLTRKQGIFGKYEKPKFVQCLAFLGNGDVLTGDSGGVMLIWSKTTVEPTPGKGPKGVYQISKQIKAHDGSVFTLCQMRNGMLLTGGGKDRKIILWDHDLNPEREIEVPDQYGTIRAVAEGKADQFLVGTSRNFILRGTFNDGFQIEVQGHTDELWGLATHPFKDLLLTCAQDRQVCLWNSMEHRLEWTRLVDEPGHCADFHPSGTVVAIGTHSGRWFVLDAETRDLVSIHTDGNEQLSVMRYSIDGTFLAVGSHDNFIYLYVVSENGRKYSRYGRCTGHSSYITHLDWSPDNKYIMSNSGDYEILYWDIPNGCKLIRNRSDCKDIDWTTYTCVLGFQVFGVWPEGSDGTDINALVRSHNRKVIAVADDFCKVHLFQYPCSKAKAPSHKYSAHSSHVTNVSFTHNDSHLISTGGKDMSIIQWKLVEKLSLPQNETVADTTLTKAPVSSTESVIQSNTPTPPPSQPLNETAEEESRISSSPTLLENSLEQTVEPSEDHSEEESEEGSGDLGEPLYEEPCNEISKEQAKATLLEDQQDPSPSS
T2 sequence (Q9UM73 19-1620 limits assumed): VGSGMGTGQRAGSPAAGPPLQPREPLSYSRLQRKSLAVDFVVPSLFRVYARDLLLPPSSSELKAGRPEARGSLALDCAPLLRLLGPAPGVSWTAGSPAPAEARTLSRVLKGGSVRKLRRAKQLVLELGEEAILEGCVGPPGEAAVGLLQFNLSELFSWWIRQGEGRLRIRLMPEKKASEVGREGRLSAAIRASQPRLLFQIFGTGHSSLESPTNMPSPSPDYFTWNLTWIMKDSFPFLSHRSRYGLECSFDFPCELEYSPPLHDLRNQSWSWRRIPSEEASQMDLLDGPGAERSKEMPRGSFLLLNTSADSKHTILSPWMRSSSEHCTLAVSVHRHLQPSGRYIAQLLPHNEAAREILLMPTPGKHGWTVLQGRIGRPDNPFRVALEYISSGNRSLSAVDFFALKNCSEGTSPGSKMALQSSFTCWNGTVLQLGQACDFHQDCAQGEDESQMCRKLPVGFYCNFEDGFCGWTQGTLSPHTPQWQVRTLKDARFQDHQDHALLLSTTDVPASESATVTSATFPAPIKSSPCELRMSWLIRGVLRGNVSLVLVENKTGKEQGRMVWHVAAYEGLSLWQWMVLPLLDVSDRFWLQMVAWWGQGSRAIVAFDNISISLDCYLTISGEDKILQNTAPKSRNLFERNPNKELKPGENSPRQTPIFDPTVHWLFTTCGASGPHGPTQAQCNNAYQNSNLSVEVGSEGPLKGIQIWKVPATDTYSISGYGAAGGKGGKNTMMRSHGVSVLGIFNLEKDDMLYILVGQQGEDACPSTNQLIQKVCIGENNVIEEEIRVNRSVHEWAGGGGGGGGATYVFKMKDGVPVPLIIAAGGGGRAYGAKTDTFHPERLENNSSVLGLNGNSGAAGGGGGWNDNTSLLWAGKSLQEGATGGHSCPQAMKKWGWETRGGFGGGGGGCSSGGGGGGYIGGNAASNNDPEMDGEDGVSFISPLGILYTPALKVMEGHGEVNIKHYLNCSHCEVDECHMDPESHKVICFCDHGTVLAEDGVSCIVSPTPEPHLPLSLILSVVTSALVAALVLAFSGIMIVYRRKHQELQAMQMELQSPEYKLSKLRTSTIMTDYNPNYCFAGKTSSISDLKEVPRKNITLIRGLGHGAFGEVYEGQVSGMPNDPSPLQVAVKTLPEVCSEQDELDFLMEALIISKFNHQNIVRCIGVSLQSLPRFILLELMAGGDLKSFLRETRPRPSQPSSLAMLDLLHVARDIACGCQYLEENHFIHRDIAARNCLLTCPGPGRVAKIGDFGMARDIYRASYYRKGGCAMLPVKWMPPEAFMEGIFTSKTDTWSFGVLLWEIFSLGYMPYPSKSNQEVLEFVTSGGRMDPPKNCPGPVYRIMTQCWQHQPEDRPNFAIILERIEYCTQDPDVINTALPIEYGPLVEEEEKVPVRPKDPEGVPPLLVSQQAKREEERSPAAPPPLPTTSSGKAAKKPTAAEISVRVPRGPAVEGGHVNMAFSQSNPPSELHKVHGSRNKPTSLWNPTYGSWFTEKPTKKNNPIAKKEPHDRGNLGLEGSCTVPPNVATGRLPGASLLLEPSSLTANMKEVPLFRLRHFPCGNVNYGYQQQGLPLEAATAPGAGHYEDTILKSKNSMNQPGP
Sequence of Cyclin-dependent kinase 6 (Homo sapiens) (Q00534 whole entry): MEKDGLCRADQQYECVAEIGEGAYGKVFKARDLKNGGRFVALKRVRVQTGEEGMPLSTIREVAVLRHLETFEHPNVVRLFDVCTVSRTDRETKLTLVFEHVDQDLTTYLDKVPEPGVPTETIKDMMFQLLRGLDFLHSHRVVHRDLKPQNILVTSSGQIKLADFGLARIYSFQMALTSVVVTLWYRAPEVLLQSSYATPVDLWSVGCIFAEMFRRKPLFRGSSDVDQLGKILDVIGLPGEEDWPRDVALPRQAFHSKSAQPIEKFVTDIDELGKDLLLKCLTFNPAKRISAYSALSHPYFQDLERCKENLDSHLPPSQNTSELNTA

Activity [3]: inactive | Activity [5]: Active | Activity [9]: inactive | inhibition [15]: 97.8% | Activity [18]: inactive | IC50 (NCI-H3122 [20]): 0.11 µM | Activity [21]: inactive | Activity [25]: Active | half-life [26]: > 24 h
Structure (SMILES): CC(=O)c1c(C)c2cnc(Nc3ccc(N4CCN(CC(=O)NCCSSCCN(CC(=O)NCCNc5cccc6c5C(=O)N(C5CCC(=O)NC5=O)C6=O)C(=O)CCCCCCC(=O)N5CCC(c6cc(OC(C)C)c(Nc7ncc(Cl)c(Nc8ccccc8S(=O)(=O)C(C)C)n7)cc6C)CC5)CC4)cn3)nc2n(C2CCCC2)c1=O (centres undefined)
Activity (NCI-H3122 [1]): 14.44% | Activity [2]: Non-Toxic | Activity (NCI-H3122 [4]): 2.11% | Activity (NCI-H3122 [6]): 5.85% | Activity [7]: Non-Toxic | Activity [8]: Non-Toxic | Activity (NCI-H3122 [10]): 72.25% | Activity (NCI-H3122 [11]): 68.5% | Activity (Mus musculus [12]): Active | Activity (NCI-H3122 [13]): 16.61% | Activity (NCI-H3122 [14]): Active | Activity (NCI-H3122 [16]): 1.03% | Activity (NCI-H3122 [17]): 15.81% | Activity (NCI-H3122 [19]): 63.17% | viability at 0.312 µM (NCI-H3122 [22]): 91.5% | Activity (Mus musculus [23]): Active | IC50 [24]: 55.3 µM | Activity (NCI-H3122 [27]): 16.42% | Activity (NCI-H3122 [28]): 1.92% | Activity (NCI-H3122 [29]): 11.78%

From ChEMBL document CHEMBL5321200, “Discovery of the GSH responsive "Y-PROTACs" targeting ALK and CDK4/6 as a potential treatment for cancer” (Eur J Med Chem, 2023)
